# Results: patent publication US9062048B2, “Cyclohexyl-azetidinyl antagonists of CCR2” (Janssen Pharmaceutica NV, priority 2010, dated 2015)
# Target: CCR2 (Homo sapiens (Human), UniProt P41597)
# Experiment: MCP-1 Receptor Binding Assay in THP-1 Cells;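 further: THP-1 is a human monocytic cell line, and nonspecific binding was defined with 1 µM unlabeled MCP-1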
# Conditions: 0.5 nM 125I labeled MCP-1, 2 hours at 30° C., read-out: Inhibition of MCP-1 Binding IC50 MCP1B
# Sequence of CCR2 (P41597 whole entry): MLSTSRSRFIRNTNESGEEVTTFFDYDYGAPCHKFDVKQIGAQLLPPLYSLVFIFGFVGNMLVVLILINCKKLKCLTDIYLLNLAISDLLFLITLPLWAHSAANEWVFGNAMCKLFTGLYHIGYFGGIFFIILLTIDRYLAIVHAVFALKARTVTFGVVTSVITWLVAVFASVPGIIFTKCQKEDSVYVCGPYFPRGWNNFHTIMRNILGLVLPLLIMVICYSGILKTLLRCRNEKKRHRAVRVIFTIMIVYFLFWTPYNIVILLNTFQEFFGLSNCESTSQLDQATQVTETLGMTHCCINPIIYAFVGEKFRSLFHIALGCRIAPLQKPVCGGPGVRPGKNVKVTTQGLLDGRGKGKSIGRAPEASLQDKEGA
row,Compound,IC50
1,"Cc1ccc([C@]2(O)CC[C@H](N3CC(NC(=O)CNc4ncnc5ccc(C(F)(F)F)cc45)C3)CC2)cn1 [Example 75, N-(1-((1r,4r)-4-hydroxy-4-(6-methylpyridin-3-yl)cyclohexyl)azetidin-3-yl)-2-((6-(trifluoromethyl)quinazolin-4-yl)amino)acetamide]",11 nM
2,CC(C)c1nc(NCC(=O)NC2CN([C@H]3CC[C@@](O)(c4cncs4)CC3)C2)c2cc(C(F)(F)F)ccc2n1 [Example 88],7 nM
3,"CCCC(O)[C@H]1CC[C@@H](N2CC(NC(=O)CNc3ncnc4ccc(C(F)(F)F)cc34)C2)CC1 (stereo partly drawn) [Example 90, N-(1-((1S,4s)-4-(1-hydroxybutyl)cyclohexyl)azetidin-3-yl)-2-((6-(trifluoromethyl)quinazolin-4-yl)amino)acetamide]",13 nM
4,"C=CCC(O)[C@H]1CC[C@@H](N2CC(NC(=O)CNc3ncnc4ccc(C(F)(F)F)cc34)C2)CC1 (stereo partly drawn) [Example 91, N-(1-((1S,4s)-4-(1-hydroxybut-3-en-1-yl)cyclohexyl)azetidin-3-yl)-2-((6-(trifluoromethyl)quinazolin-4-yl)amino)acetamide]",16 nM
5,"C=CC(O)[C@H]1CC[C@@H](N2CC(NC(=O)CNc3ncnc4ccc(C(F)(F)F)cc34)C2)CC1 (stereo partly drawn) [Example 92, N-(1-((1S,4s)-4-(1-hydroxyallyl)cyclohexyl)azetidin-3-yl)-2-((6-(trifluoromethyl)quinazolin-4-yl)amino)acetamide]",16 nM
6,"O=C(CNc1ncnc2ccc(C(F)(F)F)cc12)NC1CN([C@H]2CC[C@@H](C(O)C3CCCC3)CC2)C1 (stereo partly drawn) [Example 94, N-(1-((1S,4s)-4-(cyclopentyl(hydroxy)methyl)cyclohexyl)azetidin-3-yl)-2-((6-(trifluoromethyl)quinazolin-4-yl)amino)acetamide]",24 nM
7,"C#CC(O)[C@H]1CC[C@@H](N2CC(NC(=O)CNc3ncnc4ccc(C(F)(F)F)cc34)C2)CC1 (stereo partly drawn) [Example 95, N-(1-((1R,4s)-4-(1-hydroxyprop-2-yn-1-yl)cyclohexyl)azetidin-3-yl)-2-((6-(trifluoromethyl)quinazolin-4-yl)amino)acetamide]",28 nM
8,"C=C(C)C(O)[C@H]1CC[C@@H](N2CC(NC(=O)CNc3ncnc4ccc(C(F)(F)F)cc34)C2)CC1 (stereo partly drawn) [Example 96, N-(1-((1R,4s)-4-(1-hydroxy-2-methylallyl)cyclohexyl)azetidin-3-yl)-2-((6-(trifluoromethyl)quinazolin-4-yl)amino)acetamide]",75 nM

# Second part, the compound after the results:
row,IC50,Compound
1,9 nM,"Nc1ccc(C2CCC(N3CC(NC(=O)CNc4ncnc5ccc(C(F)(F)F)cc45)C3)CC2)nc1 (stereo not drawn) [Example 70, N-(1-(4-(5-aminopyridin-2-yl)cyclohexyl)azetidin-3-yl)-2-((6-(trifluoromethyl)quinazolin-4-yl)amino)acetamide]"
2,55 nM,"O=C(CNc1ncnc2ccc(C(F)(F)F)cc12)NC1CN([C@H]2CC[C@@H](c3ccccc3CO)CC2)C1 [Example 73, N-(1-((1s,4s)-4-(2-(hydroxymethyl)phenyl)cyclohexyl)azetidin-3-yl)-2-((6-(trifluoromethyl)quinazolin-4-yl)amino)acetamide]"
3,130 nM,"CNc1cnccc1C1CCC(N2CC(NC(=O)CNc3ncnc4ccc(C(F)(F)F)cc34)C2)CC1 (stereo not drawn) [Example 74, N-(1-(4-(3-(methylamino)pyridin-4-yl)cyclohexyl)azetidin-3-yl)-2-((6-(trifluoromethyl)quinazolin-4-yl)amino)acetamide]"
4,21 nM,"CCC(O)[C@H]1CC[C@@H](N2CC(NC(=O)CNc3ncnc4ccc(C(F)(F)F)cc34)C2)CC1 (stereo partly drawn) [Example 93, N-(1-((1S,4s)-4-(1-hydroxypropyl)cyclohexyl)azetidin-3-yl)-2-((6-(trifluoromethyl)quinazolin-4-yl)amino)acetamide]"
